Experimental data published in ChEMBL document CHEMBL1221257, “Hit-to-lead optimization of a series of carboxamides of ethyl 2-amino-4-phenylthiazole-5-carboxylates as novel adenosine A2A receptor antagonists” (Bioorg Med Chem Lett, 2010).

Experiments:
[1] = target: T1, Adenosine receptor A1 (Homo sapiens, UniProt P30542); assay: Displacement of [3H]DPCPX from human adenosine A1 receptor expressed in CHO cells by liquid scintillation counting; type: cell-based
T1 sequence (P30542 whole entry): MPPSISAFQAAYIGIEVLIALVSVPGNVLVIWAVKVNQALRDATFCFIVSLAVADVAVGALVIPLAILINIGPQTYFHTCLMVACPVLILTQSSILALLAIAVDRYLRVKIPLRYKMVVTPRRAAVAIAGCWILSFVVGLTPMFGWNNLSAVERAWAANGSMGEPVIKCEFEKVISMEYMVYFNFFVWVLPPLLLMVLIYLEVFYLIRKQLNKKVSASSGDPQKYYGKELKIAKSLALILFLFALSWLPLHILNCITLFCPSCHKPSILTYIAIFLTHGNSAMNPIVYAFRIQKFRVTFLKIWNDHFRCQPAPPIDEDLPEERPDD

[2] = target: T2, Adenosine receptor A2a (Homo sapiens, UniProt P29274)
Description: Displacement of [3H]ZM241385 from human adenosine A2A receptor expressed in buculovirus system by liquid scintillation counting

[3] = test system: Mus musculus; assay: Reversal of haloperidol-induced hypolocomotion in po dosed NMRI mouse model of Parkinson's disease measured for 20 mins; type: functional
[4] = test system: Mus musculus; assay: In-vivo displacement of [3H]SCH442416 from adenosine A2A receptor in po dosed NMRI mouse by liquid scintillation counting; type: functional
[5] = target: T3, Adenosine receptor A1 (Homo sapiens) (UniProt P30542); assay: Displacement of [3H]DPCPX from human adenosine A1 receptor expressed in CHO cells at 2000 nM by liquid scintillation counting; type: cell-based
T3 sequence (whole entry): T1 sequence (P30542 whole entry)

[6] = target: T2, Adenosine receptor A2a; assay: Displacement of [3H]ZM241385 from human adenosine A2A receptor expressed in buculovirus system at 10 uM by liquid scintillation counting
[7] = target: T3, Adenosine receptor A1 (Homo sapiens); assay: Displacement of [3H]DPCPX from human adenosine A1 receptor expressed in CHO cells at 10 uM by liquid scintillation counting; type: cell-based

T2 sequence (P29274 whole entry): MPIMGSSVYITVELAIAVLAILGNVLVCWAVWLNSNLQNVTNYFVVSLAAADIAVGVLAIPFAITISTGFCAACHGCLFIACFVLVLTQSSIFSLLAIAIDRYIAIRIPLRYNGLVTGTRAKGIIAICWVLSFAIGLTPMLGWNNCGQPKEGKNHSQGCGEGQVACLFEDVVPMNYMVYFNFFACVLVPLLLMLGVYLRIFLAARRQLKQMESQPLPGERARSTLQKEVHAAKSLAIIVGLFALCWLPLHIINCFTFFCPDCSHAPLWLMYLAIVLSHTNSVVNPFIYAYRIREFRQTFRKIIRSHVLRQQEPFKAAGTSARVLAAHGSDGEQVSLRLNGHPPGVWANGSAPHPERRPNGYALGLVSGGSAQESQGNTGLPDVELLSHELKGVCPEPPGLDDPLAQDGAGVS

Structure (SMILES) | Ki [1] [nM] | Ki [2] [nM] | also measured
Cc1nc(-c2sc(NC(=O)C3CC3)nc2-c2ccccc2)no1 | 150 | 28 | Activity [3]: Dose-dependent effect; ED50 [3]: 7 mg/kg; ED50 [4]: 5.8 mg/kg
COCCOc1ccc(N2CCN(CCn3ncc4c3nc(N)n3nc(-c5ccco5)nc43)CC2)cc1 [PRELADENANT] | > 1000 | 5 | Activity [5]: 30%; ED50 [3]: 0.4 mg/kg
O=C(Nc1nc(-c2ccccc2)c(C(=O)O)s1)c1ccco1 |  |  | Activity [6]: 0%
Cc1noc(-c2sc(NC(=O)C3CC3)nc2-c2ccccc2)n1 | 41 | 12 | 
O=C(Nc1nc(-c2ccccc2)c(-c2ncon2)s1)C1CC1 | 310 | 120 | 
CC(=O)Nc1nc(-c2ccccc2)c(-c2nc(C)no2)s1 | 370 | 110 | 
N#Cc1sc(NC(=O)c2ccco2)nc1-c1ccccc1 |  | 290 | 
Cc1noc(-c2sc(NC(=O)c3ccco3)nc2-c2ccccc2)n1 | 270 | 200 | 
CCCC(=O)c1sc(NC(=O)c2ccco2)nc1-c1ccccc1 | 90 | 62 | 
CCOC(=O)c1sc(NC(=O)c2ccco2)nc1-c1ccccc1 | 95 | 13 | 
CCNC(=O)c1sc(NC(=O)c2ccco2)nc1-c1ccccc1 |  |  | Activity [6]: 37%
Cc1noc(-c2sc(NC(=O)c3ccccc3)nc2-c2ccccc2)n1 | 180 | 190 | 
CCn1c(=O)c2c(nc(/C=C/c3ccc(OC)c(OC)c3)n2C)n(CC)c1=O [ISTRADEFYLLINE] | 3000 |  | ED50 [3]: 0.13 mg/kg
CCS(=O)(=O)c1sc(NC(=O)c2ccco2)nc1-c1ccccc1 |  |  | Activity [6]: 25%
O=C(Nc1nc(-c2ccccc2)c(-c2ncon2)s1)c1ccco1 | 230 | 410 | 
CCOCc1sc(NC(=O)c2ccco2)nc1-c1ccccc1 | 92 | 190 | 
Cc1nc(-c2sc(NC(=O)Cc3ccccc3)nc2-c2ccccc2)no1 | 260 | 25 | 
Cc1noc(-c2sc(NC(=O)CC(C)C)nc2-c2ccccc2)n1 | 27 | 48 | 
O=C(Nc1nc(-c2ccccc2)c(-c2ncon2)s1)c1ccccc1 | 300 | 330 | 

Now from value to compound, other results behind:

Ki [1] [nM] | Ki [2] [nM] | Structure (SMILES) | also measured
340 | 57 | Cc1noc(-c2sc(NC(=O)Cc3ccccc3)nc2-c2ccccc2)n1 | 
780 | 700 | Cc1nc(-c2sc(NC(=O)c3ccco3)nc2-c2ccccc2)no1 | 
1600 | 45 | CCn1nnc(-c2sc(NC(=O)Cc3ccc(OC)c(OC)c3)nc2-c2ccccc2)n1 | 
82 | 33 | Cc1nc(-c2sc(NC(=O)CC(C)C)nc2-c2ccccc2)no1 | 
 | 83 | Cc1nc(-c2sc(NC(=O)c3ccccc3)nc2-c2ccccc2)no1 | Activity [7]: 45%
1700 | 710 | O=C(Cc1ccccc1)Nc1nc(-c2ccccc2)c(-c2ncon2)s1 | 
 | 190 | CC(=O)Nc1nc(-c2ccccc2)c(-c2noc(C)n2)s1 | Activity [7]: 76%
1200 | 460 | CCn1nnc(-c2sc(NC(=O)Cc3ccccc3)nc2-c2ccccc2)n1 | 
 | 220 | CCn1nnc(-c2sc(NC(=O)c3ccccc3)nc2-c2ccccc2)n1 | Activity [7]: 65%
77 | 340 | CC(C)CC(=O)Nc1nc(-c2ccccc2)c(-c2ncon2)s1 | 
210 | 77 | CCn1nnc(-c2sc(NC(=O)C3CC3)nc2-c2ccccc2)n1 | 
650 | 94 | CCn1nnc(-c2sc(NC(=O)c3ccco3)nc2-c2ccccc2)n1 | 
